This passage reports TGI and GI50 results from PubChem BioAssay (NCI).

Test systems include UO-31 renal; CCRF-CEM leukemia; TK-10 renal; KM12 colon; HOP-62 NSCLC; MALME-3M melanoma; MDA-MB-435; NCI-H23 lung; HCT-116 colon; OVCAR-4 ovarian.
What all share (assay): DTP human tumour cell line panel, 48 h

SMILES strings stand for the structures. Several values for one entry are separate records, joined by “and”; a condition that tells them apart may be missing. Identical values can stand only once.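 Dose response: 5 concentrations. Exposure: 48 h. Format: 96-well plates. Endpoint: linear interpolation; highest concentration if not reached. GI50 marks 50% less growth. At the TGI there is no net growth.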 Where a SMILES comes first, the peptide text is derived from it. The star is where a group is joined. Cbz = O=C(OCc1ccccc1)*; Boc = CC(C)(C)OC(=O)*; OSu = O=C1CCC(=O)N1O*; Bn = c1ccc(C*)cc1 Bounds are passed on as bounds.

One may read the TGI as the concentration at which net growth stops. Read a low TGI as more potent growth arrest. For `CC(CC=O)Nc1nn2c(=O)c3ccccc3nc2s1` (stereo unspecified), the TGI in the assay on UO-31 renal is 48.1 µM; in the assay with CCRF-CEM leukemia, more than 100 µM; in the assay on TK-10 renal, more than 100 µM; in the assay on KM12 colon it was more than 100 µM; in the assay on HOP-62 NSCLC, more than 100 µM; with MALME-3M melanoma, more than 100 µM. For the same compound, the TGI in the assay with MDA-MB-435, in the assay with NCI-H23 lung, in the assay on HCT-116 colon and in the assay with OVCAR-4 ovarian was more than 100 µM each time.

Turning to `COC1OC(C(=O)O)C2OC(C)(C)OC12` (stereo unspecified), the total growth inhibition concentration (TGI) in the assay on UO-31 renal, in the assay on CCRF-CEM leukemia, with TK-10 renal, with KM12 colon, in the assay with HOP-62 NSCLC and in the assay with MALME-3M melanoma was more than 100 µM throughout. Besides, the TGI in the assay on MDA-MB-435, in the assay with NCI-H23 lung, with HCT-116 colon and in the assay with OVCAR-4 ovarian was more than 100 µM each time.

Turning to `CCOC(=O)C1C(c2ccc(OC)cc2)c2c([nH]n(-c3ccccc3)c2=O)CC1(C)O` (stereo unspecified), the TGI with UO-31 renal is more than 100 µM; in the assay on CCRF-CEM leukemia, 35.6 µM; in the assay on TK-10 renal, more than 100 µM; in the assay on KM12 colon, more than 100 µM; in the assay with HOP-62 NSCLC it was more than 100 µM; in the assay with MALME-3M melanoma it was more than 100 µM. The total growth inhibition concentration (TGI) with MDA-MB-435, with NCI-H23 lung, in the assay with HCT-116 colon and with OVCAR-4 ovarian was more than 100 µM each time.

Take `O=C1C=C/C(=C/[C@H]2SSC=C[C@]23C=CC(=O)C3)C1`: the concentration for total growth inhibition (TGI) with UO-31 renal is 32.5 µM; in the assay with CCRF-CEM leukemia, 9.27 µM; in the assay with TK-10 renal, more than 64.7 µM; in the assay with KM12 colon, 46.6 µM; in the assay on HOP-62 NSCLC it was more than 73.8 µM; in the assay with MALME-3M melanoma, 41.5 µM. In addition, the TGI in the assay on MDA-MB-435 was more than 53.1 µM; with NCI-H23 lung it was 44.1 µM; in the assay with HCT-116 colon it was 22 µM; in the assay with OVCAR-4 ovarian it was more than 74.2 µM.

In the case of `Cc1cc2c(cc1Cl)Sc1n[nH]c(=O)n1S2(=O)=O`, the TGI with UO-31 renal, with CCRF-CEM leukemia, in the assay with TK-10 renal, with KM12 colon, with HOP-62 NSCLC and in the assay on MALME-3M melanoma was more than 100 µM in each case. The TGI in the assay on MDA-MB-435, with NCI-H23 lung, in the assay with HCT-116 colon and in the assay with OVCAR-4 ovarian was more than 100 µM throughout.

Take `CC(=O)N1c2cc(N=NN(C)C)ccc2NC(=O)CC1C` (stereo unspecified): the TGI in the assay with UO-31 renal, in the assay with CCRF-CEM leukemia, in the assay on TK-10 renal, with KM12 colon, in the assay on HOP-62 NSCLC and in the assay on MALME-3M melanoma was more than 100 µM throughout. For the same compound, the TGI in the assay on MDA-MB-435, in the assay on NCI-H23 lung, with HCT-116 colon and in the assay with OVCAR-4 ovarian was more than 100 µM in each case.

On to `CC(C)(C)OC(=O)NC(Cc1ccc(OCc2ccccc2)cc1)C(=O)NC(CCCCNC(=O)OCc1ccccc1)C(=O)NC(CCCCNC(=O)OCc1ccccc1)C(=O)ON1C(=O)CCC1=O` (stereo unspecified) (Boc-Tyr(Bn)-Lys(Cbz)-Lys(Cbz)-OSu; configuration not given here), for which the TGI in the assay with UO-31 renal, in the assay with CCRF-CEM leukemia, in the assay with TK-10 renal, in the assay on KM12 colon, in the assay on HOP-62 NSCLC and in the assay with MALME-3M melanoma was more than 100 µM each time. Further, the TGI in the assay with MDA-MB-435 is more than 100 µM; with NCI-H23 lung it was more than 100 µM; in the assay with HCT-116 colon it was 58.7 µM; in the assay on OVCAR-4 ovarian, more than 100 µM.

On to `CC(C)=CCc1c2c(c(O)c3c(=O)c4c(oc13)-c1ccc(O)cc1OC4C=C(C)C)C=CC(C)(C)O2` (stereo unspecified), for which the total growth inhibition concentration (TGI) in the assay with UO-31 renal is 33.7 µM; with CCRF-CEM leukemia, 15.5 µM; with TK-10 renal, 28.5 µM; in the assay on KM12 colon it was 21.7 µM; in the assay with HOP-62 NSCLC it was 28.4 µM; with MALME-3M melanoma it was 34.3 µM. The TGI with MDA-MB-435 was determined as 23.3 µM; with NCI-H23 lung it was 20.3 µM; in the assay with HCT-116 colon, 21 µM; in the assay on OVCAR-4 ovarian, 24.8 µM.

The term GI50 denotes the concentration giving 50% growth inhibition. For the compound `CC(C)=CCCC1(C)C2COC(=O)C21` (stereo unspecified), the TGI in the assay on UO-31 renal was more than 100 µM; in the assay on CCRF-CEM leukemia, > 100 µM and 52.6 µM; in the assay with TK-10 renal, more than 100 µM; with KM12 colon, more than 100 µM; in the assay on HOP-62 NSCLC it was > 100 µM and 75.4 µM; in the assay with MALME-3M melanoma, more than 100 µM. Further, the TGI with MDA-MB-435 was more than 100 µM; in the assay with NCI-H23 lung, > 100 µM and 60.1 µM; in the assay on HCT-116 colon, > 100 µM and 35.4 µM; in the assay on OVCAR-4 ovarian it was more than 100 µM. Moreover, the GI50 with CCRF-CEM leukemia is 39.3 µM and 12.3 µM; with KM12 colon, > 100 µM and 42.1 µM; in the assay with HOP-62 NSCLC, > 100 µM and 27.6 µM; in the assay on MDA-MB-435, > 100 µM and 43.6 µM; in the assay with NCI-H23 lung it was > 100 µM and 26.7 µM; with HCT-116 colon, > 100 µM and 19.8 µM.

As for `CCC1CN2CCc3c([nH]c4ccccc34)[C@@](C(=O)OC)(c3cc4c(cc3OC)N(C)C3C(O)(C(=O)OC)C(C(=O)OC)C5(CC)C=CCN6CCC43C65)C[C@@H](C2)[C@@H]1C(C)(C)C` (stereo partly specified), the TGI was more than 6.12 µM with UO-31 renal; more than 5.53 µM in the assay with CCRF-CEM leukemia; more than 10 µM with TK-10 renal; more than 5.72 µM in the assay on KM12 colon; 1.25 µM with HOP-62 NSCLC; 2.95 µM in the assay with MALME-3M melanoma. In addition, the TGI was 0.462 µM with MDA-MB-435, more than 6.31 µM with NCI-H23 lung, 2.85 µM with HCT-116 colon and more than 10 µM with OVCAR-4 ovarian.
